Data: patent publication US20040048866A1 (priority 2002, published 2004)

Assays:
[1] = biological target: T1, α1 and β1 subunits of guanylate cyclase (sGC), expressed in Sf9 cells (Homo sapiens, UniProt Q02108+Q02153); experiment: Guanylate Cyclase Assay (formation of cyclic GMP from GTP); assay type: biochemical; conditions: for Mean activation at 100 μM: (activity at 100 μM with 1 μM SNP − activity at 100 μM)/(activity of SNP at 1 μM − basal activity of sGC); for Mean efficacy at 100 μM with 1 μM of SNP, [% of YC-1]: compound at 100 μM with 1 μM sodium nitroprusside (SNP), normalized to 100 μM YC-1 (without SNP) as 100%; for Emax at 100 µM / Mean basal efficacy at 100 μM, [% of YC-1]: compound at 100 μM without SNP, normalized to activity of 100 μM YC-1 (without SNP) as 100%; for Emax at 100 µM: read-out: Mean basal efficacy at 100 μM, [% of YC-1]
T1 construct: made in house; host or cells: Sf9 insect cells (baculovirus co-infection); high-speed supernatant used unpurified
T1 sequence (Q02108 1-690): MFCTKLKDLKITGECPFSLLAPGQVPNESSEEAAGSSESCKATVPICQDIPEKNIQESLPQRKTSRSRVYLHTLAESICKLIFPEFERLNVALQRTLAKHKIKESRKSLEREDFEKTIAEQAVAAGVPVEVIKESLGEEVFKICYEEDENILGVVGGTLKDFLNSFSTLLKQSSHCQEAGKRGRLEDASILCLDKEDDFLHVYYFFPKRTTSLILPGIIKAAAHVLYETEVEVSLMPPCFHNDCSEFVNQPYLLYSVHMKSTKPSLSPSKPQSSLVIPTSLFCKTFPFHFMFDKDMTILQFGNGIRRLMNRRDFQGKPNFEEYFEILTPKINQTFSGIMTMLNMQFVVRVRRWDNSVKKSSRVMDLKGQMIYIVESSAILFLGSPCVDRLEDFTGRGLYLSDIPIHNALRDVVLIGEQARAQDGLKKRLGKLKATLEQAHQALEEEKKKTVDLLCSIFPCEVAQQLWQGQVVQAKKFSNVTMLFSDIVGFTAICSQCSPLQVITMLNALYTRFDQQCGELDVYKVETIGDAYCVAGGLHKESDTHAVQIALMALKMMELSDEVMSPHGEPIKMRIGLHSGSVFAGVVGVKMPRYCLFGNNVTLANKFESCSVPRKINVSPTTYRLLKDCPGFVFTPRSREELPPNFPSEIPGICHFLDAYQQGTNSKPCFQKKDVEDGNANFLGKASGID
T1 sequence (Q02153 1-619): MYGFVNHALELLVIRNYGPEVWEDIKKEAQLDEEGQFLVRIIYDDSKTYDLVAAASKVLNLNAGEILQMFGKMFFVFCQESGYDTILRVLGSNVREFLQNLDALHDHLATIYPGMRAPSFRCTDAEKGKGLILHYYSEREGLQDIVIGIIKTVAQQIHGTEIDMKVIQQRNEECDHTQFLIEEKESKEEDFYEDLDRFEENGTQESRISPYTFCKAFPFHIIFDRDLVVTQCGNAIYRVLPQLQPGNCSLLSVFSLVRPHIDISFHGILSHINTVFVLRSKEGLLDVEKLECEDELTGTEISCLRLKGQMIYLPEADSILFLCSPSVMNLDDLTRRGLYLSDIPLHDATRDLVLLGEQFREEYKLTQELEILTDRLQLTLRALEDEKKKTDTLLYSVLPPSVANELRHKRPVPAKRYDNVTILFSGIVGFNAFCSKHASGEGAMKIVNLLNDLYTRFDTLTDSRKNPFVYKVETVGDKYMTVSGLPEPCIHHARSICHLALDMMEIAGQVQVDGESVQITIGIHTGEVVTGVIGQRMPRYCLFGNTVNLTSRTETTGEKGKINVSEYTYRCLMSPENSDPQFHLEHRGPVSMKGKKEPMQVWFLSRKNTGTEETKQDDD
Protocol: Sf9 cells were cultured in Sf-90011 medium supplemented with 10% (v/v) fetal calf serum at 28° C. to give a count of 6×10^5 cells/ml. The cells were then infected with a mixture of the virus stocks for the α1 and β1 subunits of guanylate cyclase at a multiplicity of infection of 0.1 pfu/cell. The cells were harvested 72 hours after infection and were pelleted by centrifugation. The resulting cell pellets were homogenized with Polytron homogenizer in 3 volumes of 20 mM Tris-HCl (pH 7.6) containing 1 mM EDTA, 5 mM dithiothreitol, 90 mM NaCl, 10% glycerol, and protease inhibitors mix (Roche Molecular Biochemicals). The homogenate was centrifuged at 50,000×g for 60 minutes and the supernatant was aliquotted and stored at −80° C.
Compounds of the present invention were dissolved in DMSO to make 100 mM and saved as stocks at −20° C. When compounds were tested, 10-fold concentrated solutions with 10% DMSO were prepared. 10 μl of 10-fold concentrated compound solutions were added to the reaction mixture total of 100 μl.
Guanylate cyclase activity was measured by the formation of cyclic GMP from GTP in a total volume of 100 μl. Guanylate cyclase-expressed Sf9 cell high-speed supernatant (Sf9 high-speed sup) was used as an enzyme source for the assay. The reaction mixture containing 0.1 μl enzyme of Sf9 high-speed sup, compound solution, 50 mM Tris-HCl (pH 7.6), 4 mM MgCl2, 0.5 mM IBMX, 15 mM creatine phosphate, 20 μg creatine phosphokinase, 0.1% BSA and 1 mM GTP were incubated at 37° C. for 15 minutes. After the reaction, 0.9 ml of 50 mM sodium acetate buffer (pH 5.8) was added followed by boiling for 3 minutes to stop the reaction. The solution was centrifuged at 3000 rpm for 15 minutes at room temperature and cyclic GMP in 20 μl of the resulting supernatant was measured according to the protocol of Amersham cyclic GMP enzymeimmunoassay system (Amersham, RPN 226).
Compounds of the present invention were tested at 100 μM with and without 1 μM of sodium nitroprusside (SNP). YC-1 was included as a standard for each assay. The data was normalized with the activity of 100 μM YC-1 (without SNP) as 100%. Mean basal efficacy, in Table 1, was expressed as a percentage of 100 μM YC-1 (without SNP).
The mean activation, in Table 1, was calculated based on the formula: (activity of compound of the present invention at 100 μM with 1 μM SNP)−(activity of compound of on at 100 μM)/(activity of SNP at 1 μM)−(basal activity of sGC).

Row | Structure (SMILES) | Mean activation at 100 μM [1] | Mean efficacy at 100 μM with 1 μM of SNP, [% of YC-1] [1] | Emax at 100 µM [1] [%] | melting point [°C] | Mean basal efficacy at 100 μM, [% of YC-1] [1]
1 | OCc1cccc(Oc2nn(Cc3ccccc3)c3ccccc23)n1 [Example 2, {6-[(1-benzyl-1H-indazol-3-yl)oxy]-2-pyridinyl}methanol] | 1.8 | 20 % of YC-1 | 0 | 156 to 158 | 
2 | Clc1ccc(NN=Cc2ccc(Oc3nn(Cc4ccccc4)c4ccccc34)o2)nn1 [Example 3, 5-[(1-benzyl-1H-indazol-3-yl)oxy]-2-furaldehyde (6-chloro-3-pyridazinyl)hydrazone] | 1.7 | 17 % of YC-1 | 0 | 200 to 202 | 
3 | O=C(O)c1ccc(Oc2nn(Cc3ccccc3)c3ccccc23)o1 [Example 4, 5-[(1-benzyl-1H-indazol-3-yl)oxy]-2-furoic acid] | 1.5 | 26 % of YC-1 | 0 | 162 to 165 | 
4 | CN(C)CCCNC(=O)c1ccccc1Oc1nn(Cc2ccccc2)c2ccccc12 [Example 18, 2-[(1-benzyl-1H-indazol-3-yl)oxy]-N-[3-(dimethylamino)propyl]benzamide] | 1.5 | 10 % of YC-1 | 5 |  | 
5 | O=C(NC1CCC(O)CC1)c1ccccc1Oc1nn(Cc2ccccc2)c2ccccc12 (stereo not drawn) [Example 19, 2-[(1-benzyl-1H-indazol-3-yl)oxy]-N-(4-hydroxycyclohexyl)benzamide] | 1.9 | 12 % of YC-1 | 3 |  | 
6 | O=C(N[C@H]1Cc2ccccc2[C@H]1O)c1ccccc1Oc1nn(Cc2ccccc2)c2ccccc12 [Example 20, 2-[(1-benzyl-1H-indazol-3-yl)oxy]-N-[(1R,2S)-1-hydroxy-2,3-dihydro-1H-inden-2-yl]benzamide] | 1.5 | 11 % of YC-1 | 6 |  | 
7 | CCCC(CO)NC(=O)c1ccccc1Oc1nn(Cc2ccccc2)c2ccccc12 (stereo not drawn) [Example 21, 2-[(1-benzyl-1H-indazol-3-yl)oxy]-N-[1-(hydroxymethyl)butyl]benzamide] | 1.9 | 15 % of YC-1 | 5 |  | 
8 | O=C(NCC(O)c1ccccc1)c1ccccc1Oc1nn(Cc2ccccc2)c2ccccc12 (stereo not drawn) [Example 22, 2-[(1-benzyl-1H-indazol-3-yl)oxy]-N-(2-hydroxy-2-phenylethyl)benzamide] | 2.1 | 13 % of YC-1 | 2 |  | 
9 | CN1CCCC1CCNC(=O)c1ccccc1Oc1nn(Cc2ccccc2)c2ccccc12 (stereo not drawn) [Example 23, 2-[(1-benzyl-1H-indazol-3-yl)oxy]-N-[2-(1-methyl-2-pyrrolidinyl)ethyl]benzamide] | 2.2 | 15 % of YC-1 | 3 |  | 
10 | O=C(NCCCn1ccnc1)c1ccccc1Oc1nn(Cc2ccccc2)c2ccccc12 [Example 24, 2-[(1-benzyl-1H-indazol-3-yl)oxy]-N-[3-(1H-imidazol-1-yl)propyl]benzamide] | 1.7 | 12 % of YC-1 | 5 |  | 
11 | O=C(NN1CCOCC1)c1ccccc1Oc1nn(Cc2ccccc2)c2ccccc12 [Example 25] | 1.9 | 14 % of YC-1 |  |  | 4 % of YC-1
12 | O=C(NCC1CCCCC1O)c1ccccc1Oc1nn(Cc2ccccc2)c2ccccc12 (stereo not drawn) [Example 26, 2-[(1-benzyl-1H-indazol-3-yl)oxy]-N-[(2-hydroxycyclohexyl)methyl]benzamide] | 2.0 | 12 % of YC-1 | 1 |  | 
13 | C(=Cc1ccccc1)Cn1nc(OCc2ccccc2)c2ccccc21 [Example 27, 3-(benzyloxy)-1-[3-phenyl-2-propenyl]-1H-indazole] | 1.7 | 18 % of YC-1 | -2 |  | 
14 | O=C(O)c1ccc(Cn2nc(OCc3ccccc3)c3ccccc32)o1 [Example 28, 5-{[3-(benzyloxy)-1H-indazol-1-yl]methyl}-2-furoic acid] | 1.9 | 27 % of YC-1 | 6 |  | 
15 | OCc1ccc(Cn2nc(OCc3ccccc3)c3ccccc32)o1 [Example 29, (5-{[3-(benzyloxy)-1H-indazol-1-yl]methyl}-2-furyl)methanol] | 1.4 | 11 % of YC-1 | 1 | 80 to 82 | 
16 | O=[N+]([O-])c1ccc(Oc2nn(Cc3ccccc3F)c3ncccc23)nc1 [Example 34, 1-(2-fluorobenzyl)-3-[(5-nitro-2-pyridinyl)oxy]-1H-pyrazolo[3,4-b]pyridine] | 1.0 | 7 % of YC-1 | 4 | 111 to 113 | 
17 | O=[N+]([O-])c1cccnc1Oc1nn(Cc2ccccc2F)c2ncccc12 [Example 35, 1-(2-fluorobenzyl)-3-[(3-nitro-2-pyridinyl)oxy]-1H-pyrazolo[3,4-b]pyridine] | 1.9 | 28.1 % of YC-1 | 7.1 | 115 to 117 | 
18 | OCc1ccc(-c2nn(Cc3ccccc3)c3ccccc23)o1 [YC-1, reference compound] | 2.7 | 224 % of YC-1 |  |  | 100 % of YC-1
